According to patent US20160106723A1, “METHODS TO SENSE AND TREAT SUBCLINICAL SKIN DAMAGE” (priority 2014, published 2016):

Legend:
[1] = tested on: subclinical skin damage in unblemished skin; assay: Topical treatment of unblemished skin of participants, observed skin reaction (photographs); assay type: in vivo, human; details: participant
Excerpt: The response of sun or UV damaged cells to Imiquimod in these non-suspicious areas are indicative of altered cells. Clearly subclinical skin damage or AK may exist in the skin but may not be clinically evident in their early development as appearing in FIGS. 1A, 2A, 3A, 4A, 5A, 6A, and 7A.
The detailed method of treatment of subclinical skin damage and of inducing an immune cell response in unblemished skin involves topical application of formulation essentially comprising Imiquimod in an effective amount during a cycle of therapy that is in the range of two to four weeks; and observing the skin for the response; wherein the composition is administered once or twice daily during the cycle of therapy, which is repeated at least once on a substantially annual basis.

normal human skin = details: cited from earlier work

With CC(C)Cn1cnc2c(N)nc3ccccc3c21 [Imiquimod] the “skin reaction after treatment” value ([1]; FIG. 1B, chest region, 11 days of treatment, strength about 3.75%) was “severe erythema”, the “skin reaction after treatment” value ([1]; FIG. 2B, chest region, fourteen days of treatment, strength about 5.00%) was “moderate erythema” and the “skin reaction after treatment” value ([1]; FIG. 3B, chest region, fourteen days of treatment, strength about 3.75%) was “moderate erythema”. For the same molecule, the “skin reaction after treatment” value ([1]; FIG. 5B, forehead region, fifteen days of treatment, strength about 3.75%) was “moderate reaction”, the “skin reaction after treatment” value ([1]; FIG. 6B, scalp region, ten days of treatment, strength about 2.5%) was “moderate reaction” and the “skin reaction after treatment” value ([1]; FIG. 7B, cheek region, fourteen days of treatment, strength about 2.5%) was “moderate reaction”. For the same molecule, the “skin reaction after treatment” value ([1]; FIG. 8A, cheek region, fourteen days of treatment, strength about 2.5%) was “moderate reaction”, the “skin reaction after treatment” value ([1]; FIG. 8B and 8C, forehead region, fourteen days of treatment, strength about 2.5%) was “moderate reaction” and the “skin reaction after treatment” value ([1]; FIGS. 4B and 4C, cheek region, twelve days of treatment, strength about 2.5%) was “mild reaction”. The “effect on IL-10 production” value (normal human skin) was “reduced IL-10 production” and the “effect on resident T cells” value (normal human skin) was “induced activation of resident T cells”.
